These results are taken from BindingDB's records for doi:10.7270/Q2319T8T (The Scripps Research Institute Molecular Screening Center, 2007).

Broadly, the IC50 is the midpoint of a concentration-inhibition curve.

Counter-ions that a name gives are not always drawn.

Sequence of Steroidogenic factor 1 (Q13285 whole entry, the tested form may be a part): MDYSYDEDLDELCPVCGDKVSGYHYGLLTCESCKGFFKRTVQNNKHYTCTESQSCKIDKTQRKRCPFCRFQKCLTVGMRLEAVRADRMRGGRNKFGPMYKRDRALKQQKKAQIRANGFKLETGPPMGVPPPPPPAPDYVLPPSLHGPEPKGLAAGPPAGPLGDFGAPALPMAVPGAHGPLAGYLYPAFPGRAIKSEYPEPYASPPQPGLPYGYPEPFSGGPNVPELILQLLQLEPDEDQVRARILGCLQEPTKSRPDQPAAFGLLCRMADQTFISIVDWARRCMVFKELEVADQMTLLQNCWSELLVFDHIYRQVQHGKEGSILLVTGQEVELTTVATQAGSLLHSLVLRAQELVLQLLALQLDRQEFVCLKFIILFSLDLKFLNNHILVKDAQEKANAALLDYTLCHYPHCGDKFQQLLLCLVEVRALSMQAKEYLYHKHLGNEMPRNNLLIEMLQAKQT

One assay concerns the target Steroidogenic factor 1 (Homo sapiens, UniProt Q13285). As to the kind of experiment: SF-1 inhibitor potency, dose response, cell-based, CHO-K1, Gal4-SF-1 LBD, luciferase luminescence (AID 600).
Settings: not given
With `CCCOc1ccc(-c2nnc(-c3ccco3)o2)cc1` [2-(2-furanyl)-5-(4-propoxyphenyl)-1,3,4-oxadiazole], the IC50 is more than 3.67 µM. The same measure, in the same setting: to `O=C(Nc1nc2cc3c(cc2s1)OCO3)C1=COCCO1` [MLS000103798] belongs 3.7 µM; to `Cc1cnc(NC(=O)COc2ccccc2Cl)s1` [2-(2-chloranylphenoxy)-N-(5-methyl-1,3-thiazol-2-yl)ethanamide], more than 1.22 µM. On the same count and under the same terms, to `CC1CCCN(c2ncnc3c2cnn3-c2ccc(Cl)cc2)C1` (centres undefined) [1-(4-chlorophenyl)-4-(3-methyl-1-piperidinyl)pyrazolo[3,4-d]pyrimidine] belongs less than 0.00503 µM; to `COc1cc(NS(=O)(=O)c2ccc(C)cc2)c2ncccc2c1` [SMR000071147], more than 3.67 µM; to `O=C(NCc1ccco1)c1ccc2nc3sc4c(c3c(=O)n2c1)CCCC4` [MLS000091875], more than 3.67 µM.

With `CCc1nn2cc(-c3ccccc3)nc2s1` [2-ethyl-6-phenyl-imidazo[2,1-b][1,3,4]thiadiazole], the IC50 is 4.41 µM. This lies in the single-digit micromolar range. Same read-out and setting: to `CCOc1ccc(-c2nnc(-c3ccco3)o2)cc1` [2-(2-furyl)-5-p-phenetyl-1,3,4-oxadiazole] belongs 5.29 µM; to `CCOC(=O)C(C)Oc1cccc2c(=O)n(CC(=O)Nc3ccc4c(c3)OCCO4)ccc12` (centres undefined), 0.837 µM; to `C/C(Cl)=C\Cn1c(NCCc2ccccc2)nc2c1c(=O)n(C)c(=O)n2C` [SMR000044779], more than 11 µM. Take `CCn1c2ccccc2c2cc(NC(=O)CSc3nnnn3-c3ccccc3)ccc21` [MLS000051054]: the midpoint of inhibition, the IC50, lay at 6.92 µM.

In turn, `Cn1cc(C=Nn2cnc3scc(-c4ccc(Cl)cc4)c3c2=O)c2ccccc21` [5-(4-chlorophenyl)-3-[(1-methyl-3-indolyl)methylideneamino]-4-thieno[2,3-d]pyrimidinone] had an IC50 of 9.07 µM. The IC50 values of the last two molecules are within 1.5-fold of each other. Still for that read-out and setting: to `O=C(Nc1ccc(N2CCOCC2)cc1)c1cnsn1` [MLS000063695] belongs 4.09 µM. The same measure, in the same setting: to `O=C(c1ccc(Cl)cc1)N1CCCCC(Sc2nnc(-c3ccc4c(c3)OCO4)o2)C1=O` (centres undefined) [3-[[5-(1,3-benzodioxol-5-yl)-1,3,4-oxadiazol-2-yl]sulfanyl]-1-(4-chlorobenzoyl)azepan-2-one] belongs 1.07 µM; to `c1ccc(-c2noc(-c3ccc4ccccc4c3)n2)nc1` [2-[5-(2-naphthyl)-1,2,4-oxadiazol-3-yl]pyridine], 0.7 µM. Still for that read-out and setting: to `COc1cc([C@@H]2c3cc4c(cc3[C@H](O)[C@H]3COC(=O)[C@H]23)OCO4)cc(OC)c1OC` [podophyllotoxin] belongs 0.0454 µM. With `Cc1ccc(-c2nsc3c(N4CCC(C(N)=O)CC4)ncnc23)cc1` [1-(3-p-Tolyl-isothiazolo[4,5-d]pyrimidin-7-yl)-piperidine-4-carboxylic acid amide], 0.221 µM corresponded to half-maximal inhibition (IC50). `c1csc(CNc2ncnc3sccc23)c1` [2-thenyl(thieno[2,3-d]pyrimidin-4-yl)amine] gave an IC50 of 3.49 µM. Still for that read-out and setting: to `Cc1ccc(-c2cnc(NC(=O)CCC(=O)N3CCCCC3)n2C)cc1` [4-keto-N-[1-methyl-5-(p-tolyl)imidazol-2-yl]-4-piperidino-butyramide] belongs more than 99 µM.

As for `CN1CCN(C(=O)COc2ccc(-c3nc4ccccc4s3)cc2)CC1` [2-[4-(1,3-benzothiazol-2-yl)phenoxy]-1-(4-methyl-1-piperazinyl)ethanone], half-maximal inhibition (IC50) was put at 7.32 µM. The same measure, in the same setting: to `O=C(NCCCN1CCOCC1)c1csc2c1CCCC2` [MLS000093382] belongs more than 99 µM; to `Cc1cc(C)n(-c2nc(NC(C)(C)C)nc(NC(C)(C)C)n2)n1` [2-N,4-N-ditert-butyl-6-(3,5-dimethylpyrazol-1-yl)-1,3,5-triazine-2,4-diamine], 8.2 µM; to `[O-][N+]1=c2ccc(Nc3ccccc3)cc2=NC12CCCCC2` [1-oxido-N-phenyl-5-spiro[benzimidazol-1-ium-2,1'-cyclohexane]amine], 6.49 µM. `CCOc1ccc(C2=Nn3c(nnc3-c3ccccc3OC)SC2)cc1` [6-(4-ethoxyphenyl)-3-(2-methoxyphenyl)-7H-[1,2,4]triazolo[3,4-b][1,3,4]thiadiazine] displayed an IC50 of more than 0.407 µM. The same measure, in the same setting: to `Cc1ccnc(NC(=O)CCCOc2cc(=O)n(C)c3ccccc23)c1` [4-(1-methyl-2-oxidanylidene-quinolin-4-yl)oxy-N-(4-methylpyridin-2-yl)butanamide] belongs 6.17 µM.

`Cc1nc2nc(-c3ccccc3)cn2nc1C` [2,3-dimethyl-6-phenyl-imidazo[1,2-b][1,2,4]triazine]: the IC50 is more than 11 µM.

Regarding `CCn1c2ccccc2c2cc(Nc3cc(C)nc4ncnn34)ccc21` [(9-ethylcarbazol-3-yl)-(5-methyl-[1,2,4]triazolo[1,5-a]pyrimidin-7-yl)amine], half-maximal inhibition (IC50) was put at 6.19 µM.

For the molecule `COc1ccc(OC)c(NC(=O)CSc2nnnn2-c2ccc3c(c2)OCO3)c1` [2-(1-Benzo[1,3]dioxol-5-yl-1H-tetrazol-5-ylsulfanyl)-N-(2,5-dimethoxy-phenyl)-acetamide], the IC50 is 2.35 µM. The same measure, in the same setting: to `CCn1nc(-c2cccs2)nc2c(=O)n(C)c(=O)nc1-2` [1-ethyl-6-methyl-3-thiophen-2-yl-pyrimido[5,4-e][1,2,4]triazine-5,7-dione] belongs 2.65 µM; to `O=C(c1ccccc1)C(CCC(CN1CCOCC1)C(=O)c1ccccc1)CN1CCOCC1` (centres undefined) [2,5-bis(4-morpholinylmethyl)-1,6-diphenylhexane-1,6-dione;hydrochloride], 10.6 µM. Turning to `COc1ccc(CCNc2nnc(Sc3nnnn3-c3ccccc3)s2)cc1OC` [MLS000056567], the IC50 was determined as 5.15 µM.

On to `CC(C)(C)c1ccc(-c2noc(CCC(N)=O)n2)cc1` [3-[3-(4-tert-butylphenyl)-1,2,4-oxadiazol-5-yl]propanamide], for which the IC50 turned out to be 0.069 µM. The same measure, in the same setting: to `Nc1nc(Cl)nc2c1ncn2[C@H]1C[C@H](O)[C@@H](CO)O1` [2-CHLORO-2'-DEOXYADENOSINE] belongs 0.454 µM. `COc1nc(Nc2nc(O)c3ccccc3n2)nc2ccc(C)cc12` [SMR000108404] gave an IC50 of 2.1 µM. This IC50 lies about 4.6-fold higher than the previous one. The same measure, in the same setting: to `Fc1ccc2[nH]c3c(N4CCN(Cc5ccc6c(c5)OCO6)CC4)ncnc3c2c1` [4-[4-(1,3-benzodioxol-5-ylmethyl)-1-piperazinyl]-8-fluoro-5H-pyrimido[5,4-b]indole] belongs 7.8 µM.

The assay is the same for the next values; noted with them: inactive by the depositor's call.
In turn, `O=S(=O)(C/C(=C/CO)S(=O)(=O)c1ccccc1)c1ccccc1` [(Z)-3,4-bis(benzenesulfonyl)but-2-en-1-ol] gave a half-inhibitory concentration (IC50) of 18 µM.

As for `Cc1ccc(-c2cc3c(nn2)-c2ccccc2C3=O)cc1` [3-(4-methylphenyl)-5H-indeno[1,2-c]pyridazin-5-one], the midpoint of inhibition, the IC50, lay at 13 µM. This IC50 and that of the molecule before are within 1.5-fold of each other. The same measure, in the same setting: to `Cc1nn(-c2ccccc2)c(C)c1C(=O)OCC(=O)c1c(N)n(CC(C)C)c(=O)n(C)c1=O` [3,5-dimethyl-1-phenyl-4-pyrazolecarboxylic acid [2-[4-amino-1-methyl-3-(2-methylpropyl)-2,6-dioxo-5-pyrimidinyl]-2-oxoethyl] ester] belongs 30.3 µM; to `COc1ccccc1CC(=O)N1CCN(c2cccc(C(F)(F)F)c2)CC1` [2-(2-methoxyphenyl)-1-[4-[3-(trifluoromethyl)phenyl]-1-piperazinyl]ethanone], 19.7 µM. `c1ccc(-c2cccc(-c3ccccn3)n2)nc1` [2,6-bis(2-pyridinyl)pyridine] showed a concentration for half-maximal inhibition (IC50) of 10.3 µM. On the same count and under the same terms, to `CCOc1cc(C(=O)N2CCc3cc(OC)c(OC)cc3C2)ccc1OC(F)F` [MLS000083614] belongs 12.9 µM.

With `COc1ccc(NC(=O)NCCCN2CCN(c3cc(C)ccc3C)CC2)cc1` [1-[3-[4-(2,5-dimethylphenyl)-1-piperazinyl]propyl]-3-(4-methoxyphenyl)urea], the IC50 worked out at 24.3 µM.

The molecule `C=CCOC(=O)c1[nH]c2c(c1C)C(=O)CC(c1cc(OC)c(OC)c(OC)c1)C2` (centres undefined) [SMR000093465] displayed an IC50 of 18.1 µM.

Consider `COc1cccc(N2CCN(c3ncnc4c3[nH]c3ccccc34)CC2C)c1` (centres undefined) [4-[4-(3-methoxyphenyl)-3-methyl-1-piperazinyl]-5H-pyrimido[5,4-b]indole], for which the IC50 turned out to be 28.6 µM. Same read-out and setting: to `CN1/C(=C/C(=O)c2nc(S(C)(=O)=O)ncc2Cl)C(C)(C)c2ccccc21` belongs 15.5 µM. The same measure, in the same setting: to `COc1ccc(CCNc2nc(C)nc3c2oc2ccccc23)cc1OC` [MLS000040997] belongs 10.1 µM; to `O=C(CSC1=NCCS1)Nc1ccnc2ccccc12` [2-(4,5-dihydro-1,3-thiazol-2-ylsulfanyl)-N-quinolin-4-yl-ethanamide], 15.1 µM; to `Cc1cc(NC(=O)c2ccc3c(c2)OCCO3)no1` [MLS000064124], 13.1 µM. On the same count and under the same terms, to `CC(=O)c1c(C)[nH]c(C(=O)Nc2ccc(C)cn2)c1C` [SMR000026816] belongs 14.2 µM.
